This note sets out measurements from ChEMBL document CHEMBL5053521 (Bioorg Med Chem Lett, 2021).

Broadly, the pEC50 is −log10 of the EC50, conventionally taken in molar units. As usually defined, the pKi is the Ki on a negative log10 scale, so that one unit is a factor of ten. Low readings indicate a high Ki, high ones a low Ki. As a reminder, the pKd is the negative decadic logarithm of the Kd, by convention in mol/L. A low value points to a high Kd.

pEC50, pKd, pKi: −log10 of the molar value.

The target in experiment [1] is T1, Histamine H2 receptor (Homo sapiens, UniProt P25021). Description: Agonist activity at human H2 receptor expressed in HEK293T-ARRB2 cells assessed as stimulation of beta-arrestin 2 recruitment. The format is functional, cell-based. A general note: Recruitment of arrestin is a read-out of receptor activation apart from second messengers.
T1 sequence (P25021 whole entry): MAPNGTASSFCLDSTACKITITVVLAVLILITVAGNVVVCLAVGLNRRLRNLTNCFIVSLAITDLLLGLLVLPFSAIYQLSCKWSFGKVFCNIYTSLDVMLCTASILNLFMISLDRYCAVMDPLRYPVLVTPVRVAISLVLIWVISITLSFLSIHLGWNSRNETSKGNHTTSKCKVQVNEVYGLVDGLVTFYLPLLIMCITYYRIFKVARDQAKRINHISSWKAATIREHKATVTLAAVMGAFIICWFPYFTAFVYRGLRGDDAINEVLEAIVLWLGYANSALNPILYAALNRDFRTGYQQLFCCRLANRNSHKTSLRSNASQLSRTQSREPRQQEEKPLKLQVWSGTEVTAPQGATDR
The target of experiment [2] is T1, Histamine H2 receptor. Description: Agonist activity at human H2 receptor expressed in HEK293T-ARRB1 cells assessed as stimulation of beta-arrestin 1 recruitment by measuring maximum efficacy. The class given is functional, cell-based. The note with it: filed as agonist.
For experiment [3], the target named is T1, Histamine H2 receptor. Description: Displacement of [3H]UR-DE257 from Gsalphas-coupled human H2R expressed in Sf9 cell membranes by competitive binding assay. Set-up: species or system Membrane.
The target in experiment [4] is T1, Histamine H2 receptor. Description: Binding affinity to human H2R expressed in HEK293T-qs5-HA cells by flow cytometry analysis. The class given is cell-based. For orientation: In flow cytometry, cells or beads pass a laser one at a time.
For experiment [5], the target named is T1, Histamine H2 receptor. Description: Agonist activity at human H2 receptor expressed in Sf9 cell membranes co-exprssing GsalphaS assessed as stimulation of [35S]GTPgammaS binding incubated for 90 mins by scintillation counting analysis. The format is functional, Membrane. (GTPγS is a poorly hydrolysed GTP analogue; its binding reports G protein activation.)

The target of experiment [6] is T1, Histamine H2 receptor. Description: Agonist activity at NlucN/mini-Gi protein-fused human H2R stably expressed in HEK293T cells assessed as induction of mini-Gi protein recruitment using furimazine as substrate measured for 45 mins by luminescence assay. The class given is functional, cell-based.
The target of experiment [7] is T1, Histamine H2 receptor. Description: Agonist activity at human H2 receptor expressed in HEK293T-ARRB1 cells assessed as stimulation of beta-arrestin 1 recruitment. The class given is functional, cell-based.

As for `Cc1nc(N)sc1CCCN/C(N)=N/C(=O)NCCCCCCNC(=O)CCCCCN1/C(=C/C=C/C=C/C2=[N+](C)c3ccccc3C2(C)C)c2ccccc2C1(C)C`, the pEC50 in experiment [1] is 6.72; in experiment [5], 6.73; in experiment [6] it was 6.30; in experiment [7], 6.29. Also, the Emax in experiment [2] was 0.57. In experiment [3], the negative-log Ki (pKi) is 7.66. In experiment [4], this molecule showed a pKd of 7.48.

In turn, `Cc1nc(N)sc1CCCN/C(N)=N/C(=O)NCCCCCCCCNC(=O)CCCCCN1/C(=C/C=C/C=C/C2=[N+](CCCCS(=O)(=O)O)c3ccccc3C2(C)C)c2cc(S(=O)(=O)[O-])ccc2C1(C)C` gave a pKi in experiment [3] of 6.58. The molecule further showed a pKd in experiment [4] of less than 6.00. For the same molecule, the negative logarithm of the EC50 (pEC50) in experiment [5] was 5.89; in experiment [6], 6.12.

Turning to `Cc1nc(N)sc1CCCN/C(N)=N/C(=O)NCCCCCCCCCCNC(=O)CCCCCN1/C(=C/C=C/C=C/C2=[N+](CCCCS(=O)(=O)[O-])c3ccccc3C2(C)C)c2ccccc2C1(C)C`, the negative logarithm of the Ki (pKi) in experiment [3] is 7.02. The pKd in experiment [4] is 6.64. In addition, the pEC50 is 6.17 in experiment [5] and 5.84 in experiment [6].

Consider `Cc1nc(N)sc1CCCN/C(N)=N/C(=O)NCCCCCCCCNC(=O)CCCCCN1/C(=C/C=C/C=C/C2=[N+](CCCCS(=O)(=O)[O-])c3ccccc3C2(C)C)c2ccccc2C1(C)C`, for which the pEC50 was 6.89 in experiment [1], 6.47 in experiment [5], 5.96 in experiment [6] and 6.21 in experiment [7]. In experiment [2], the Emax came out at 0.09. The molecule also gave a negative-log Ki (pKi) in experiment [3] of 6.25. The molecule further had a negative-log Kd (pKd) in experiment [4] of 7.15.

On to `Cc1nc(N)sc1CCCN/C(N)=N/C(=O)NCCCCCCCCNC(=O)CCCCCNC(=O)COc1ccc(/C=C/C2=[N+]3C(=Cc4ccc(-c5cccs5)n4[B-]3(F)F)C=C2)cc1`, for which the pKi in experiment [3] was 7.52. In experiment [4], this molecule gave a negative-log Kd (pKd) of 7.09. The pEC50 in experiment [5] is 7.14.

As for `CC1(C)C(/C=C/C=C/C=C2\c3ccccc3C(C)(C)N2CCCCCC(=O)NCCCCCCCCNC(=O)/N=C(\N)NCCCc2nnc(N)s2)=[N+](CCCCS(=O)(=O)[O-])c2ccccc21`, the negative-log EC50 (pEC50) was 7.19 in experiment [1], 7.00 in experiment [5], 6.59 in experiment [6] and 6.47 in experiment [7]. In experiment [2], the Emax turned out to be 0.55. In addition, in experiment [3], the pKi was 6.58. For the same molecule, the negative-log Kd (pKd) in experiment [4] is 6.95.

Take `CC1(C)C(/C=C/C=C/C=C2\c3ccccc3C(C)(C)N2CCCCCC(=O)NCCCCCCCCNC(=O)/N=C(\N)NCCCc2c[nH]cn2)=[N+](CCCCS(=O)(=O)[O-])c2ccccc21`: the negative logarithm of the EC50 (pEC50) in experiment [1] is 6.94; in experiment [5] it was 6.92; in experiment [6], 6.47; in experiment [7], 6.37. For the same molecule, the Emax in experiment [2] came to 0.25. The molecule also gave a negative-log Ki (pKi) in experiment [3] of 7.18. In experiment [4], this molecule showed a pKd of 7.25.

Regarding `NCCc1c[nH]cn1`, the Emax in experiment [2] was 1.

On to `Cc1nc(N)sc1CCCN/C(N)=N/C(=O)NCCCCCCCCCCNC(=O)CCCCCN1/C(=C/C=C/C=C/C2=[N+](CCCCS(=O)(=O)O)c3ccccc3C2(C)C)c2cc(S(=O)(=O)[O-])ccc2C1(C)C`, for which, in experiment [3], the pKi is less than 6.00. Moreover, the pEC50 was 5.62 in experiment [5] and 5.69 in experiment [6].

As for `Cc1nc(N)sc1CCCN/C(N)=N/C(=O)NCCCCCCNC(=O)CCCCCN1/C(=C/C=C/C=C/C2=[N+](CCCCS(=O)(=O)[O-])c3ccccc3C2(C)C)c2ccccc2C1(C)C`, the pKi in experiment [3] was 6.60. In experiment [4], this molecule showed a negative logarithm of the Kd (pKd) of 6.00. The pEC50 in experiment [5] was 6.25; in experiment [6], 5.41.
